Data reported in US11649245B2, “Cyclopropylamine compound as LSD1 inhibitor and use thereof” (HELIOEAST PHARMACEUTICAL CO., LTD., priority 2018, dated 2023).
Structures can show the parent of a compound that is named as a salt.

Assays:
human LSD1 = human LSD1 (Homo sapiens, UniProt O60341); test: In vitro enzyme activity screening against LSD1 (HRP/Amplex Red fluorescence coupling enzyme method); type: biochemical; details: human LSD1, histone H3K4me peptide substrate 20 μM
Description: The purpose of this test was to detect the in vitro inhibitory activity of the compounds against LSD1. The enzyme used in this test was human LSD1, the standard substrate was histone H3K4me peptide (20 μM), the fluorescence coupling enzyme method was used to determine the activity of the compound by combining horseradish peroxidase (HRP) and fluorescent reagent Amplex Red to detect the H2O2 generation as a result of the reaction of LSD1. Compounds were tested in 10-dose IC50 mode with a 3-fold serial dilution starting at 10 μM. The enzyme and […] to start the reaction. Fluorescence detector: Envision, excitation wavelength: Ex/Em=530/590 […]

[1] = In vivo pharmacokinetics in CD-1 mice; details: male, CD-1, mouse, plasma, male CD-1 mice; for half-life / clearance / Vd: iv, 1 mg/kg; for half-life: IV 1 mg/kg, read-out: Half-life T1/2 (IV) (converted); for clearance / Vd / Cmax: study doses 1 mg/kg intravenous, 2 mg/kg oral; for clearance: read-out: Clearance CL; for Vd: read-out: Volumes of distribution Vdss; for Cmax: route not given, read-out: Max concentration Cmax; for AUC(0-t) / bioavailability: po, 2 mg/kg; for AUC(0-t): PO 2 mg/kg, read-out: The area under the plasma concentration-time curve AUC0-last PO; for bioavailability: oral 2 mg/kg vs intravenous 1 mg/kg, read-out: Bioavailability F
Description: CD-1 mice (male, 7-9 weeks old, Shanghai Slac)
The rodent pharmacokinetic characteristics after intravenous injection and oral administration of the compounds were tested by standard protocols, in the experiment, the candidate compounds were formulated into clear solutions and administrated to mice via a single intravenous injection and oral administration. The vehicle for intravenous injection and oral administration was a mixed solution of 10% of dimethyl sulfoxide and 90% of 10% hydroxypropyl β cyclodextrin. This project used four male CD-1 mice, two mice were administered intravenously, with a dose of 1 mg/kg, and plasma samples were collected at 0 hour (before administration) and 0.0833, 0.25, 0.5, 1, 2, 4, 8, 24 hours after administration. The other two mice were orally administered by gavage, with a dose of 2 mg/kg, plasma samples were collected at 0 hour (before administration) and 0.25, 0.5, 1, 2, 4, 8, 24 hours after administration, whole blood samples were collected within 24 hours, which were centrifuged at 3000 g for 15 minutes, and the supernatants were separated to obtain plasma samples, 4 times volume of acetonitrile solutions containing internal standard were added to precipitate the protein, the mixtures were centrifuged to obtain the supernatants, the supernatants were added with water of equal volume and centrifuged again to take the supernatant for injection, and the blood drug concentration was quantitatively analyzed by the LC-MS/MS analysis method, and pharmacokinetic parameters were calculated, such as max concentration (Cmax), clearance (CL), half-life (T1/2), volumes of distribution (Vdss), the area under the plasma concentration-time curve (AUC0-last), bioavailability (F) etc.

HL60 cells = test: Antiproliferation activity on HL60 cells (CellTiter-Glo, 6 days); type: cell-based; details: Homo sapiens, HL-60, 144 h, incubated for 6 days
Excerpt: Experimental purpose: to detect the antiproliferation activity of the compound to be tested on HL60 cells.
(§1) Experimental materials: RPMI-1640 culture medium, fetal bovine serum, penicillin/streptomycin antibiotics purchased from Wisent. CellTiter-Glo (chemiluminescent cell viability assay reagent) reagents purchased from Promega. HL60 cell line purchased from Nanjing Cobioer Co., Ltd. Nivo multi-label reader (PerkinElmer).
Experimental method: HL60 cells were planted in a white 384-well plate, 40 μL of cell suspension per well, 600 HL60 cells were contained therein. The cell plate was placed in a carbon dioxide incubator for overnight culture. The compounds to be tested were diluted 5-fold with a pipet until the 10th concentration, i.e., diluted from 2 mM to 1.024 nM, double duplicate well experiment was set. 78 μL of the culture medium was added to an intermediate plate, and then 2 μL per well of the serially diluted compounds were transferred to the corresponding positions on the intermediate plate, after mixing, 10 μL per well was transferred to the cell plate. The cell plate was incubated in a carbon dioxide incubator for 6 days. Another cell plate was prepared and the signal value on the day of dosing was read as the maximum value (Max value in the equation below) to participate in the data analysis. 20 μL of chemiluminescent cell viability assay reagent was added to each well of this cell plate, which was incubated at room temperature for 10 minutes to stabilize the luminescence signal. The multi-label reader was used for reading.
(§2) Data analysis: the equation (Sample-Min)/(Max-Min)*100% was used to convert the original data into the inhibition rate, the IC50 value can be obtained by curve fitting of four-parameters (“log(inhibitor) vs. response—Variable slope” mode in GraphPad Prism)).

NCI-H1417 cells = test: Antiproliferation activity on NCI-H1417 cells (CellTiter-Glo, 10 days); type: cell-based, human; details: Homo sapiens, NCI-H1417, 240 h, incubated for 10 days
Description: Experimental purpose: to detect the antiproliferation activity of the compounds on NCI-H1417 cells.
Experimental materials: RPMI 1640 culture medium, fetal bovine serum, Promega CellTiter-Glo reagent. NCI-H1417 cell line purchased from ATCC. Envision multi-label reader (PerkinElmer).
Experimental method: the compounds were dissolved to 10 mM, then the compounds were diluted 5 times with DMSO in a compound plate, the compounds were diluted 3-fold with Bravo from a starting concentration of 2 mM to the 10th concentration, 250 nL of the solutions were transferred to the upper and lower duplicate wells on a blank 384 cell plate by Echo transfer plate, cell suspension of per well/1000 cells/50 μL was added to the transferred 250 nL DMSO/compound, the compounds were diluted 200-fold, i.e., the initial action concentration was 10 μM. The cell plate was placed in a carbon dioxide incubator and incubated for 10 days. 25 μL of Promega CellTiter-Glo reagent was added to each well on the cell plate and was shaken at room temperature for 10 minutes to stabilize the luminescence signal. Readings were performed by PerkinElmer Envision multi-label analyzer.
Data analysis: the equation (Max-Ratio)/(Max-Min)*100% was used to convert the original data into the inhibition rate, the value of IC50 can be obtained by curve fitting of four-parameters (the 205 mode in XLFITS, iDBS).

MV-4-11 cells = test: Antiproliferation activity on MV-4-11 cells (CellTiter-Glo, 6 days); type: cell-based; details: Homo sapiens, MV4-11, 144 h, incubated for 6 days
Excerpt: Experimental purpose: to detect the antiproliferation activity of the compound to be tested on MV-4-11 cells.
as §1, with “IMDM” for “RPMI-1640”, “MV-4-11” for “HL60”, “line was” for “line”, “Multi-Marker Analyzer” for “multi-label reader”
Experimental method: MV-4-11 cells were planted in a white 96-well plate, 80 μL of cell suspension per well, which contained 6000 MV-4-11 cells. The cell plate was placed in a carbon dioxide incubator for overnight culture.
The compounds to be tested were diluted 5-fold with a pipet until the 8th concentration, i.e., diluted from 2 mM to 25.6 nM, double duplicate well experiment was set. 78 μL of the culture medium was added to an intermediate plate, and then 2 μL per well of the serially diluted compounds were transferred to the corresponding positions on the intermediate plate, after mixing, 20 μL per well was transferred to the cell plate. The cell plate was incubated in a carbon dioxide incubator for 6 days. Another cell plate was prepared and the signal value on the day of dosing was read as the maximum value (Max value in the equation below) to participate in the data analysis. 25 μL of the chemiluminescent cell viability assay reagent was added to each well of this cell plate, which was incubated at room temperature for 10 minutes to stabilize the luminescence signal. The multi-label analyzer was used for reading.
as §2

| SMILES | IC50 (human LSD1) [nM] | also measured |
| --- | --- | --- |
| O=C(O)c1ccc(NC(=O)N2CCC3(CC2)CC(N[C@@H]2C[C@H]2c2ccccc2)CO3)cc1 (stereo partly shown) [Hydrochloride of the compound 1] | 1690 |  |
| O=C(O)c1ccc(CN2CC3(CC(N[C@@H]4C[C@H]4c4ccccc4)CO3)C2)cc1 (stereo partly shown) [Hydrochloride of the compound 2] | 1580 |  |
| O=C(O)c1cccc(CN2CCC3(CC2)CC(N[C@@H]2C[C@H]2c2ccccc2)CO3)c1 (stereo partly shown) [Hydrochloride of the compound 3] | 96.7 |  |
| O=C(O)c1ccc(CN2CC3(CC(N[C@@H]4C[C@H]4c4ccccc4)CCO3)C2)cc1 (stereo partly shown) [Hydrochloride of the compound 4] | 940 |  |
| O=C(O)c1ccc(CN2CCC3(CC2)OCC3N[C@@H]2C[C@H]2c2ccccc2)cc1 (stereo partly shown) [Hydrochloride of the compound 5] | 3850 |  |
| O=C(O)c1ccccc1CN1CCC2(CC1)CC(N[C@@H]1C[C@H]1c1ccccc1)CO2 (stereo partly shown) [Hydrochloride of the compound 7] | 45.1 |  |
| COc1ccc(CN2CCC3(CC2)CC(N[C@@H]2C[C@H]2c2ccccc2)CO3)cc1 (stereo partly shown) [Hydrochloride of the compound 8] | 39.7 |  |
| Fc1ccc(CN2CCC3(CC2)CC(N[C@@H]2C[C@H]2c2ccccc2)CO3)cc1 (stereo partly shown) [Hydrochloride of the compound 9] | 37.8 |  |
| FC(F)(F)c1ccc(CN2CCC3(CC2)CC(N[C@@H]2C[C@H]2c2ccccc2)CO3)cc1 (stereo partly shown) [Hydrochloride of the compound 10] | 78.4 |  |
| O=C(O)c1ccc(N2CCC3(CC2)CC(N[C@@H]2C[C@H]2c2ccccc2)CO3)cc1 (stereo partly shown) [Hydrochloride of the compound 11] | 2880 |  |
| O=C(O)Cc1ccc(N2CCC3(CC2)CC(N[C@@H]2C[C@H]2c2ccccc2)CO3)cc1 (stereo partly shown) [Hydrochloride of the compound 12] | 1380 |  |
| Clc1ccc(CN2CCC3(CC2)CC(N[C@@H]2C[C@H]2c2ccccc2)CO3)cc1 (stereo partly shown) [Hydrochloride of the compound 13] | 46.6 |  |
| O=C(O)c1ccc(CN2CCC3(CC2)CC(N[C@@H]2C[C@H]2c2ccccc2)CO3)nc1 (stereo partly shown) [Hydrochloride of the compound 14] | 118 | half-life [1]: 0.874 h; clearance [1]: 16.9 mL/min/kg; Vd [1]: 0.551 L/kg; Cmax [1]: 629 nM; AUC(0-t) [1]: 1.38 µM·h; bioavailability [1]: 28.7% |
| O=C(O)c1ccc2cc(CN3CCC4(CC3)CC(N[C@@H]3C[C@H]3c3ccccc3)CO4)ccc2c1 (stereo partly shown) [Hydrochloride of the compound 17] | 70.6 | IC50 (HL60 cells): 0.78 nM; IC50 (NCI-H1417 cells): 0.65 nM; IC50 (MV-4-11 cells): 2.86 nM |
| O=C(O)c1cnc(CN2CCC3(CC2)CC(N[C@@H]2C[C@H]2c2ccccc2)CO3)cn1 (stereo partly shown) [Hydrochloride of the compound 18] | 92.9 | IC50 (HL60 cells): 20.4 nM; IC50 (MV-4-11 cells): 16 nM |
| O=C(O)c1ccc(CCN2CCC3(CC2)CC(N[C@@H]2C[C@H]2c2ccccc2)CO3)cc1 (stereo partly shown) [Hydrochloride of the compound 19] | 208 | IC50 (HL60 cells): 1.46 nM; IC50 (NCI-H1417 cells): 6.95 nM; IC50 (MV-4-11 cells): 4.41 nM |
| O=C(O)c1ccc(C(=O)N2CCC3(CC2)CC(N[C@@H]2C[C@H]2c2ccccc2)CO3)cc1 (stereo partly shown) [Hydrochloride of the compound 22] | 908 |  |
| NC(=O)c1ccc(CN2CCC3(CC2)CC(N[C@@H]2C[C@H]2c2ccccc2)CO3)cc1 (stereo partly shown) [Hydrochloride of the compound 23] | 64.6 | IC50 (NCI-H1417 cells): 1.68 nM; half-life [1]: 4.32 h; clearance [1]: 68.7 mL/min/kg; Vd [1]: 18.6 L/kg; Cmax [1]: 144 nM; AUC(0-t) [1]: 0.36 µM·h; bioavailability [1]: 37.2% |
| c1ccc([C@@H]2C[C@H]2NC2COC3(CCN(Cc4ccc(-c5nn[nH]n5)cc4)CC3)C2)cc1 (stereo partly shown) [Hydrochloride of the compound 24] | 41.5 | IC50 (HL60 cells): 39.1 nM; IC50 (MV-4-11 cells): 38.3 nM |
| O=C(O)c1ccc(OC(=O)N2CCC3(CC2)CC(N[C@@H]2C[C@H]2c2ccccc2)CO3)cc1 (stereo partly shown) [Hydrochloride of the compound 25] | 1720 |  |
| O=C(O)c1ccc(CN2CCC3(CC2)CC(N[C@@H]2C[C@H]2c2ccccc2)CCO3)cc1 (stereo partly shown) [Hydrochloride of the compound 26] | 271 |  |
| O=C(O)[C@H]1CC[C@H](CN2CCC3(CC2)CC(N[C@@H]2C[C@H]2c2ccccc2)CO3)CC1 (stereo partly shown) [Hydrochloride of the compound 27] | 1780 |  |
| O=C(O)C12CCC(CN3CCC4(CC3)CC(N[C@@H]3C[C@H]3c3ccccc3)CO4)(CC1)CC2 (stereo partly shown) [Hydrochloride of the compound 28] | 1460 |  |
| O=C(O)C1CC(CN2CCC3(CC2)CC(N[C@@H]2C[C@H]2c2ccccc2)CO3)C1 (stereo partly shown) [Hydrochloride of the compound 29] | 1670 |  |
| O=C(O)C1(CN2CCC3(CC2)CC(N[C@@H]2C[C@H]2c2ccccc2)CO3)CC1 (stereo partly shown) [Hydrochloride of the compound 31] | 2120 |  |
| c1ccc([C@@H]2C[C@H]2NC2COC3(CCN(CCc4nn[nH]n4)CC3)C2)cc1 (stereo partly shown) [Hydrochloride of the compound 33] | 48.2 |  |
